This note sets out measurements from ChEMBL document CHEMBL1770065, “Discovery of a clinical candidate from the structurally unique dioxa-bicyclo[3.2.1]octane class of sodium-dependent glucose cotransporter 2 inhibitors” (J Med Chem, 2011).

Data set [1] in a line: Volume of distribution at steady state in Sprague-Dawley rat at 2 mg/kg, iv. The conditions noted are these: in vivo, read-out: Vdss. The arrangement: dose 2 mg/kg, route intravenous. The class given is ADME, organism-based.
The nature of data set [2]: Cmax in Sprague-Dawley rat at 5 mg/kg, po. The arrangement: dose 5 mg/kg, route oral. As to conditions: in vivo. The class given is ADME, organism-based.
The nature of data set [3]: Oral bioavailability in Sprague-Dawley rat at 5 mg/kg. The class given is ADME, organism-based. As to conditions: in vivo.
The test system of data set [4] is Rattus norvegicus. Description: Antidiabetic activity in Sprague-Dawley rat assessed as increase of urinary glucose excretion assessed per 200 gram of body weight at 30 mg/kg, po after 24 hrs. The class given is functional, Urine.
Data set [5] concerns Rattus norvegicus. Description: Average free plasma concentration in Sprague-Dawley rat at 30 mg/kg, po after 24 hrs. The class given is ADME, organism-based. More on the design: dose 30 mg/kg, route oral. As to conditions: in vivo.
Data set [6] relates to Rattus norvegicus. Description: fAUC (0 to 24 hrs) in Sprague-Dawley rat at 30 mg/kg, po after 24 hrs. The class given is ADME, organism-based. The arrangement: dose 30 mg/kg, route oral. The conditions noted are these: in vivo.
The target of data set [7] is T1, Sodium/glucose cotransporter 2 (Rattus norvegicus, UniProt P53792).
T1 sequence (P53792 whole entry): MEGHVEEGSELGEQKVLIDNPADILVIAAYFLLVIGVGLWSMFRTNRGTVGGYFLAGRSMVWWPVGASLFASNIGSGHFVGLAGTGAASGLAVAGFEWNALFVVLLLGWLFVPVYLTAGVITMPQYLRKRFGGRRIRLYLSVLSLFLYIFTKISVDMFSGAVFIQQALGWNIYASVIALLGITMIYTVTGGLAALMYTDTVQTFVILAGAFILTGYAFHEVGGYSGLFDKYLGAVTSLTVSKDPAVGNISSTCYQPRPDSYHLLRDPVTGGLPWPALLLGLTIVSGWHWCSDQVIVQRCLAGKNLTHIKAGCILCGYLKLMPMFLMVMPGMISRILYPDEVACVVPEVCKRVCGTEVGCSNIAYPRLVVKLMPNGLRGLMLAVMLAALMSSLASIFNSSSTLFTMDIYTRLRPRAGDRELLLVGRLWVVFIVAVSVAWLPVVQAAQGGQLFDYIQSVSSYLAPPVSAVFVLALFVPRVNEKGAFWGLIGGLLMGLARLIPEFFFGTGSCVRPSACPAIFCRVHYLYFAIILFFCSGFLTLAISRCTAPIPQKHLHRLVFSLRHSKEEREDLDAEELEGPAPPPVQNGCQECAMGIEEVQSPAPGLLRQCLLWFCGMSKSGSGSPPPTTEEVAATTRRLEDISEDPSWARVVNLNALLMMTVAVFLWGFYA
Description: Inhibition of rat SGLT2.

Data set [8] concerns Rattus norvegicus. Description: Inhibition of SGLT2 in po dosed Sprague-Dawley rat after 24 hrs. The class given is functional, organism-based.
Data set [9] addresses T2, Sodium/glucose cotransporter 2 (Homo sapiens, UniProt P31639).
T2 sequence (P31639 whole entry): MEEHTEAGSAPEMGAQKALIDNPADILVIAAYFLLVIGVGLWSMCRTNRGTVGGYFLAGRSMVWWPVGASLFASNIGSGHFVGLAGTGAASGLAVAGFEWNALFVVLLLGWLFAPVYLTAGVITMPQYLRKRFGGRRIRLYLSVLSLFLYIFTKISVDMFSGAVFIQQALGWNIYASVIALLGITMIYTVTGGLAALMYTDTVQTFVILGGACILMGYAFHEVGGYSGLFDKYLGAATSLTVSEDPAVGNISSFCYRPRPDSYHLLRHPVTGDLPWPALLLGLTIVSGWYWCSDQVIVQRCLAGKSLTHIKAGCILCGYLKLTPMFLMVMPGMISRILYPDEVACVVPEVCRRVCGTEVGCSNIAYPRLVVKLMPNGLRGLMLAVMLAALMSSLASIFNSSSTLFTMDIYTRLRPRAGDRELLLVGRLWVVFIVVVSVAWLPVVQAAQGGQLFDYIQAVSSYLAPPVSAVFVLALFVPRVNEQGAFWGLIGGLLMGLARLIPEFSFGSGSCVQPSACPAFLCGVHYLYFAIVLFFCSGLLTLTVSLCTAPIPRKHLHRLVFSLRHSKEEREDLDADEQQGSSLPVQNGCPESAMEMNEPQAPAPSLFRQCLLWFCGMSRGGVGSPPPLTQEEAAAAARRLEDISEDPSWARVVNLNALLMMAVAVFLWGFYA
The data set can be described thus: Inhibition of human SGLT2 expressed in CHO cells assessed as inhibition of methyl alpha-D-glucopyranoside uptake after 1 hr. The class given is cell-based.

In a further data set the test system is Plasma. Description: Fraction unbound in rat plasma at 1000 ng/mL by equilibrium dialysis method. The class given is ADME, cell-free. (In equilibrium dialysis free small molecules cross a membrane that holds back macromolecules.)

Broadly, the Cmax is the peak of the concentration-time curve. By bioavailability is commonly meant the share of a dose that reaches the circulation, judged against a reference dose that is usually intravenous. The low end stands for poor availability, the high end for good availability. As usually defined, the IC50 is the concentration needed to halve the response being measured. In the case of `CCOc1ccc(Cc2cc([C@]34OC[C@](CO)(O3)[C@@H](O)[C@H](O)[C@H]4O)ccc2Cl)cc1` [ERTUGLIFLOZIN], the Vd in data set [1] was 1.13 L/kg. The molecule also registered a Cmax in data set [2] of 1.94 µg/mL. Besides, the bioavailability in data set [3] was found to be 69%. Moreover, the Activity in the data set on Rattus norvegicus [4] came out at 2554 mg. In the data set on Rattus norvegicus [5], this molecule displayed a Cp of 0.408 µM. This molecule returned a fAUC in the data set with Rattus norvegicus [6] of 4.28 µg·h/mL. In addition, the IC50 in [7] worked out at 1.15 nM; with Rattus norvegicus [8], 1.8 nM; in data set [9], 0.877 nM. Further, the Fu in the data set with Plasma turned out to be 4%.
